Measured values from US20250345363A1, “ANTIMICROBIAL AND ANTIBIOFILM COMPOSITIONS AND USES THEREOF” (MHCombiotic Inc., priority 2024, published 2025).

What was measured:
Assay type in all cases: cell-based
[1] = tested on: bacteria/fungi samples from Example 1; test: Planktonic susceptibility, MIC and MBC in 96-well microtiter plates; settings: averaged results
Procedure: Planktonic Susceptibility. Testing of planktonic susceptibility was conducted using MIC and MBC assessments on bacterial strains using 96-well microtiter plates. To prepare the wells for bacteria, serial dilutions of the antibacterial agents were Carried out along the rows of two microtiter plates. The antibacterials were 2-fold diluted with Mueller-Hinton broth (MHB) in each column, reaching a volume of 75 μL. The 1.0 McFarland standard was diluted 15-fold in MHB, and 75 μL of inoculum was added to the wells treated with antibacterials, resulting in a total volume of 150 μL. The microtiter plates were covered, then shake-incubated overnight at 150 rpm and 37° C. MIC was determined based on visible bacterial growth. In cases of Antibacterial opacity or ambiguous results, streaking of well cultures on Mueller-Hinton agar (MHA), overnight incubation, and subsequent comparison to controls were performed. MBC was determined by transferring 3 u L of culture from all MIC microtiter plate wells to 147 μL of MHB in fresh plates. These plates were shake-incubated overnight at 150 rpm and 37° C., and bacterial growth was visually inspected. Combination Antimicrobial Efficacy Testing. This checkerboard (96-well microtiter plates) included one column just media without bacteria/fungi and MBAs/PBCs (as a negative control), and one column without MBA/PBCs, with media, and bacteria/fungi (as a growth and positive controls control), MBAs and/or PBCs were diluted ½ across the rows (19, 20). For each analysis, the same MIC and MBC/MFC steps indicated above were conducted for surveying the bacteriostatic, bactericidal, and reading synergism effects of MBAs with PBCs combinations.
Samples from Example 1 were tested using combinations of additives as well as additives on their own for measuring bacteriostatic effects, bactericidal effects and biofilm inhibition properties.
Method of bacteriostatic effects, bactericidal effects explained in example 1 using MIC and MBC methods, respectively.

[2] = tested on: bacteria/candida biofilm (samples from Example 1); test: Prevention of biofilm formation, MBIC by crystal violet assay; settings: 48 hours at 37° C.; averaged results; unit not given
Procedure: For the prevention of biofilm formation, desired concentrations of metals (loid) and/or PBCs were added to 96 wells, with 1.0×10^6 CFU/ml bacteria/candida added to each well. The plates were then incubated for 48 hours at 37° C. in a microplate shaker incubator at 150 rpm. Afterward, the planktonic cells and spent medium were discarded, and the adhered biomass was rinsed twice with distilled water. Biofilm biomass and minimum biofilm inhibitory concentration (MBIC) were determined using the crystal violet assay. The well with no bacterial biofilm and an OD600 absorption of zero was considered the MBIC. Results from at least three separate biological replicates were averaged.
In the crystal violet assay, the microplates or Calgary biofilm device were rinsed twice with 200 μl of 0.9% saline, then stained with 200 μl of a 0.1% crystal violet solution for 30minutes. Following staining, the microplates and pegs were washed three times with 200 μl of ddH2O to remove excess dye. Biofilm quantification was performed by sonication using a 250HT™ ultrasonic cleaner (VWR International) set at 60 Hz for 10 minutes into 200 μl of 70% ethanol, and absorbance was read at 600 nm using 70% ethanol as the blank.

[3] = tested on: 11 different gram-positive and gram-negative bacteria as well as 7 different fungi, in total 18 microbes; test: Combination antimicrobial % efficacy in comparison to silver (MIC, MBC/MFC, MBIC averaged); settings: molar ratios Zinc 1:Carvacrol 3:Resveratrol 1:THC 0.1:CBD 0.1, averaged over all microbes and MIC, minimum of three biological repeats
Excerpt: Samples of 11 different gram-positive and gram-negative bacteria as well as 7 different fungi, in total 18 microbes included Pseudomonas aeruginosa ATCC 27853, Pseudomonas aeruginosa PAO1, Klebsiella pneumoniae ATCC 11296, Staphylococcus aureus ATCC 25923, Methicillin resistant S. aureus (MRSA) ATCC 33591, Escherichia coli ATCC 25922,Enterococcus faecium ATCC 19434, Staphylococcus epidermidis ATCC 12228, Enterococcus faecalis ATCC 29212, Proteus mirabilisATCC 35659, Acinetobacter baumannii CDC strain AR Bank #0033, Candida albicans ATCC 90028, Candida glabrata ATCC 2001, Candida parasilosis ATCC 22019, Candida krusei ATCC 14243, Candida tropicalis ATCC 13803, Candida auris ATCC MYA-5002, Aspergillus fumigatusATCC 16404 were used.
Metal (loid)-based antimicrobials (MBAs) including, silver nitrate (AgNO3, Sigma-Aldrich, St Louis, MO, USA Lot #M3259), potassium tellurite (K2TeO3, Sigma-Aldrich, St Louis, MO, USA, Cat #P2358-12C), hydrogen tetrachloroaurate (III) trihydrate (AuCl4.3H2O, Alfa Acsar Tweksbury, MA, USA, Lot #U17G046), zinc oxide nanoparticles, <100 nm (Sigma Aldrich), zinc sulfate (ZnSO4·1H2O), and zinc sulfate (ZnSO4.7H2O) were received from Fisher Scientific (Fair Lawn, NJ, USA, Lot #723689). […]
Planktonic Susceptibility. […] MIC was determined based on visible bacterial growth. […]

microbes = test: Evaluation of zinc sources for antimicrobial properties; settings: comparison of zinc sources

Row | Molecule | Bactericidal (MBC) ([1]; unit inferred, unit assumed) [µg/mL] | Bacteriostatic (MIC) ([1]; unit inferred, unit assumed) [µg/mL] | Biofilm Inhibition (MBIC) [2] | Total antimicrobial efficacy percent over silver alone, including Antibacterial and antibiofilm efficacy (%) [3] [%] | Antimicrobial effects of zinc source (in words) (microbes) | Bactericidal (MBC) ([1]; unit not given)
1 | C[N+](C)(C)CC(=O)O [Betaine (0.1%), Betaine] | 1 | 1 | 1 |  |  | 
2 | Cc1ccc(C(C)C)cc1O [Carvacrol, 5-Isopropyl-2-methylphenol] |  |  |  | 1.3 |  | 
3 | OO [H2O2 (1.5%), hydrogen peroxide] | 0.5 | 0.5 | 0.5 |  |  | 
4 | OO [H2O2 (3%), hydrogen peroxide] | 0.5 | 0.25 | 0.5 |  |  | 
5 | O.O.O.O.O.O.O.O=S(=O)([O-])[O-].[Zn+2] [zinc sulfate heptahydrate] |  |  |  |  | comparable to zinc sulfate monohydrate | 
6 | benzalkonium chloride [Liquid BZK (0.1%)] |  | 0.25 | (0.25-0.5) |  |  | (0.25-0.5)
